Assays:
Assay type in all cases: cell-based
[1] = target: T1, PKC ε (Homo sapiens, UniProt Q02156); assay: PKC ε activation in SH-SY5Y cells (cytosol/membrane fractions, isoform-specific antibodies); details: 0.27 nM, 5-60 min (FIG. 3)
T1 sequence (Q02156 1-737): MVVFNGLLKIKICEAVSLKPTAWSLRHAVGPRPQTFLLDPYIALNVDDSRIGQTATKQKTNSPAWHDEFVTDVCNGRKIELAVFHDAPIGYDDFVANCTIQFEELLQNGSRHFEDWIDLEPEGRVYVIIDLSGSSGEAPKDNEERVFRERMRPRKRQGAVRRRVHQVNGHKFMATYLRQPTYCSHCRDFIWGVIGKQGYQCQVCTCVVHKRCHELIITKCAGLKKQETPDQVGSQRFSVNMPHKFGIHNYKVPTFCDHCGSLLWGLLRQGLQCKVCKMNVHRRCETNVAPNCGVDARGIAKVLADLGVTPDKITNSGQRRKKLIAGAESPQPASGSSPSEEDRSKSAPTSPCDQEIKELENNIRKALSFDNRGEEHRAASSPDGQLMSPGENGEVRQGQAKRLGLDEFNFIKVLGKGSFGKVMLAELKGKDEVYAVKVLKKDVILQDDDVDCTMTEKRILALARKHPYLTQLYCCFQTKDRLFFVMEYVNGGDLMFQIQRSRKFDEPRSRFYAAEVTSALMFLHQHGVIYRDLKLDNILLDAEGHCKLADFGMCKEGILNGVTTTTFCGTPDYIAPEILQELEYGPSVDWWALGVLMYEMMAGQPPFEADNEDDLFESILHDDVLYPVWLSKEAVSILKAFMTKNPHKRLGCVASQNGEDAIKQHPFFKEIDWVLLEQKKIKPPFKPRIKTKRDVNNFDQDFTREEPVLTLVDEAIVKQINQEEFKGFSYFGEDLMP
Method: PKC isozyme activation by bryostatin-1 at 0.27 nM in SH-SY5Y cells was evaluated. SH-SY5Y cells are human-derived cell line and are often used as in vitro models of neuronal function and differentiation. Cells were treated with bryostatin-1 (0.27 nM) for 0, 5, 15, 30 and 60 min. Samples were fractionated into cytosol and membrane fractions and analyzed with PKC isoform-specific antibodies. Three independent experiments were performed for each sample.
Cell culture and treatments: Human SH-SY5Y neuroblastoma cells (ATCC) were cultured in 45% F12K, 45% DMEM and 10% FBS.
Cell lysis and Western blot analysis: Cells were harvested in homogenizing buffer (HB) containing 10 mM Tris-Cl (pH 7.4), 1 mM PMSF (phenylmethylsulfonylfluoride), 1 mM EGTA, 1 mM EDTA, 50 mM NaF and 20 μM leupeptin, and were lysed by sonication. The homogenate was centrifuged at 100,000×g for 15 min at 4° C. to obtain the cytosolic fraction (supernatant) and membrane (pellet). […] Protein concentration was measured using the Coomassie Plus (Bradford) Protein Assay kit (Pierce, Rockford, Ill., USA). Following quantification, 20 μg of protein from each sample was subjected to SDS-PAGE analysis in a 4-20% gradient Tris-Glycine polyacrylamide gel (Invitrogen, Carlsbad, Calif., USA). […] The blot was imaged in a ImageQuant RT-ECL (GE Life Sciences, Piscataway, N.J.) and densitometric quantification was performed using IMAL software. […]

[2] = target: T2, PKC α (Homo sapiens, UniProt P17252); assay: PKC α activation in SH-SY5Y cells (cytosol/membrane fractions, isoform-specific antibodies); details: 0.27 nM, 5-60 min (FIG. 3)
Method: Three independent experiments were performed for each sample.
(§1) The homogenate was centrifuged at 100,000×g for 15 min at 4° C. to obtain the cytosolic fraction (supernatant) and membrane (pellet). […] The separated protein was then transferred to a nitrocellulose membrane.

[3] = target: T1, PKC ε; assay: PKC ε activation (membrane translocation, immunoblot) in primary human neurons; parameters: host or cells: primary human cortical neurons
Method: PKC isozyme activation by bryostatin-1 at various concentrations in primary human neurons was evaluated. One month old primary human neurons were treated with 0 nM, 0.060 nM, 0.125 nM, 0.25 nM, 0.5 nM and 1.0 nM bryostatin 1 for 24 hr. Neurons were separated into soluble and membrane fractions and immunoblotted against PKC α and PKC ε. PKC activation was measured as the percentage of total protein in the membrane and reported as percentage of control. PKC staining levels were measured densitometrically. Data are represented as mean±SE of three independent experiments (Students t-test, *P<0.05 and **P<0.005).
PKC isozyme activation by bryostatin-1 at 0.25 nM in primary human neurons was evaluated. One month old primary human neurons were treated with ethanol (C), bryostatin 1 (0.25 nM) for 1 hr, 4 hr and 24 hr. Neurons were separated into soluble (S) and membrane (P) fractions and immunoblotted against PKC α, PKC ε and PKC δ. PKC activation was measured as the percentage of total protein in the membrane and reported as percentage of control. PKC staining levels were measured densitometrically.
Culture of primary human cortical neurons: Human primary neurons (ScienCell Research Laboratories, Carlsbad, Calif., USA) were plated on poly-L-lysine coated plates and were maintained in neuronal medium (ScienCell Research Laboratories, Carlsbad, Calif., USA) supplemented with the neuronal growth supplement (NGS, ScienCell Research Laboratories, Carlsbad, Calif., USA). For maintenance of neurons, half of the media was changed every 3 days. Fresh activators were added with every media change.
Cell lysis and Western blot analysis: Cells were harvested in homogenizing buffer (HB) containing 10 mM Tris-Cl (pH 7.4), 1 mM PMSF (phenylmethylsulfonylfluoride), 1 mM EGTA, 1 mM EDTA, 50 mM NaF and 20 μM leupeptin, and were lysed by sonication. The homogenate was centrifuged at 100,000×g for 15 min at 4° C. to obtain the cytosolic fraction (supernatant) and membrane (pellet). The pellet was resuspended in the HB by sonication. Protein concentration was measured using the Coomassie Plus (Bradford) Protein Assay kit (Pierce, Rockford, Ill., USA). Following quantification, 20 μg of protein from each sample was subjected to SDS-PAGE analysis in a 4-20% gradient Tris-Glycine polyacrylamide gel (Invitrogen, Carlsbad, Calif., USA). The separated protein was then transferred to a nitrocellulose membrane. The membrane was blocked with BSA and incubated with primary antibody overnight at 4° C. […] The blot was imaged in a ImageQuant RT-ECL (GE Life Sciences, Piscataway, N.J.) and densitometric quantification was performed using IMAL software. For quantifying expression of a protein, the densitometric value for the protein of interest was normalized against beta-actin (loading control).

[4] = target: T2, PKC α; assay: PKC α activation (membrane translocation, immunoblot) in primary human neurons; parameters: host or cells: primary human cortical neurons
Method: as §1

CCC/C=C/C=C/C(=O)O[C@H]1/C(=C/C(=O)OC)C[C@H]2C[C@H]([C@@H](C)O)OC(=O)C[C@H](O)C[C@@H]3C[C@H](OC(C)=O)C(C)(C)[C@](O)(C[C@@H]4C/C(=C/C(=O)OC)C[C@H](/C=C/C(C)(C)[C@]1(O)O2)O4)O3 [bryostatin-1]
PKC ε activation [1]: activated both PKC ε and PKC α | PKC α activation [2]: activated both PKC ε and PKC α | PKC-ε activation, time course ([3]; 0.25 nM, 1 hr, 4 hr and 24 hr (FIG. 2B)): induced PKC-ε activation | PKC ε activation (percentage of total protein in the membrane, percentage of control) ([3]; 0.060-1.0 nM, 24 hr (FIG. 1)): activated both PKC ε and PKC α | PKC ε activation at about 1 nM ([3]; about 1 nM, 24 hr): potent activation of both PKC ε and PKC α | PKC ε activation at low concentrations ([3]; low concentrations, 24 hr): potent PKC ε activation | PKC α activation (percentage of total protein in the membrane, percentage of control) ([4]; 0.060-1.0 nM, 24 hr (FIG. 1)): activated both PKC ε and PKC α | PKC α activation at about 1 nM ([4]; about 1 nM, 24 hr): potent activation of both PKC ε and PKC α

Reference: patent US10137106B2, “Compositions and methods to treat niemann-pick disease” (Blanchette Rockefeller Neurosciences Institute, Inc., priority 2014, dated 2018)
